# Structures can show the parent of a compound that is named as a salt. Where two headings read alike, the source gives them in different places.
# What was measured:
# mice [1] = conditions: general statement on both tests; cited from earlier work
# mice [2] = conditions: general statement on both tests; cited from earlier work; remark: listed apart in the source
# mice [3] = test: Writhing Assay (phenylbenzoquinone (PBQ)-induced writhing), analgesic activity; type: in vivo, CD Charles River mice; conditions: for ED50: Mus musculus, 50% of mice with writhes <= half control median
# Text: The "Writhing Assay" is one of the most widely-used experimental procedures for measuring the analgesic activity of different narcotic and nonnarcotic analgesic agents, and involves the continuous, chemically-induced pain of visceral origin to an animal, such as a mouse or rat. [Gyires et al., Arch. int. Pharmacodyn, 267, 131-140 (1984); C. Vander Wende et al., Fed. Proc., 15, 494 (1956); Koster et al., Fed. Proc., 18, 412 (1959); and Witken et al., J. Pharmacol. Exp. Ther., 133, 400-408 (1961).] Chemicals which may be used to induce this pain include phenylbenzoquinone (PBQ) and acetic acid. As a result of the chemical irritation to the animal, a characteristic stretching and writhing of the animal (dorsiflexion of the animal's back, extension of its hindlimbs and the strong contraction of its abdominal musculature) will generally occur. […] Drugs which reduce the number of writhes of the animal appear to restore the normal nociceptive threshold of the animal.
# This assay was conducted generally in the manner described by R. I. Taber, "Predictive Value of Analgesic Assays in Mice and Rats," Advances in Biochemical Phychopharmacology, 8, 191 (1974).
# Two hundred CD Charles River mice, weighing 20 to 30 grams, were used in this assay.
# Twenty-five minutes after subcutaneous administration, and fifteen minutes after oral administration, to the mice of 10 mg per kilogram (mpk) of body weight of either a tyrosyl diamide compound of the invention (hereinafter "test compound"), or of the Jacobson Compound, 0.1 mL per 10 g of body weight of a 0.025% w/v solution of phenylbenzoquinone (PBQ) was injected intraperitoneally into each mouse. Some mice were given saline in place of a test compound, or of the Jacobson Compound, and were used as a control group.
# Five minutes later, each mouse was individually placed into a glass beaker for observation, and the number of writhes occurring during the following ten-minute period was counted.
# A compound was considered to be "active" (to have produced analgesia in a mouse) if, after the administration of 10 mg per kilogram (mpk) of body weight of the compound to the mouse, the number of writhes elicited by a mouse injected with PBQ was equal to, or less than, one-half the median number of writhes recorded for the saline-treated control group of mice that day, as described by R. I. Taber, supra.
# The standard initial screening dose of a test compound employed in this assay was 10 mpk […] for both routes of administration. If this initial screening dose of the compound produced analgesia in seven of ten mice, then the effect of additional doses of the compound on the writhing response was evaluated, and then the ED50 value (that dose of a compound which produced analgesia in 50% of the mice to which the compound was administered) was calculated. A maximum likelihood function was used to determine the ED50 value. (The slopes of the dose-response curves for the compounds analyzed were compared as described by Tallarida and Murray, Manual of Pharmacologic Calculations, Page 1 (Springer Verlag, N.Y., 1981)).
# μ opioid receptors = μ opioid receptors (Rattus norvegicus, UniProt P33535); test: Opiate Binding Assay, displacement of 3[H]-DAMPGO from μ receptors
# Sequence of μ opioid receptors (P33535 whole entry): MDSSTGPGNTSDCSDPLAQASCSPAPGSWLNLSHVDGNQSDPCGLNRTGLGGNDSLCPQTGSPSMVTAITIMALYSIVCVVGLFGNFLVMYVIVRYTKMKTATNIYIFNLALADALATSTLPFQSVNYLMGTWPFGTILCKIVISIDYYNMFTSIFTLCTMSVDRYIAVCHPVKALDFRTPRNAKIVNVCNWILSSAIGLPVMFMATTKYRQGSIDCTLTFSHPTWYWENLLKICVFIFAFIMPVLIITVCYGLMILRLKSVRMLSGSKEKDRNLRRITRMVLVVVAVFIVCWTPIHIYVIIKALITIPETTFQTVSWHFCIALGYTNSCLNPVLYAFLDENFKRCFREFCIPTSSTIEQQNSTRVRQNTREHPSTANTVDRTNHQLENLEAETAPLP
# δ opioid receptors = δ opioid receptors (Rattus norvegicus, UniProt P33533); test: Opiate Binding Assay, displacement of 3[H]-DSLET from δ receptors; conditions: for Mean IC50 μ/δ Ratio: ratio of mean IC50 values for μ and δ, above 1.0 = more δ specific
# Sequence of δ opioid receptors (P33533 whole entry): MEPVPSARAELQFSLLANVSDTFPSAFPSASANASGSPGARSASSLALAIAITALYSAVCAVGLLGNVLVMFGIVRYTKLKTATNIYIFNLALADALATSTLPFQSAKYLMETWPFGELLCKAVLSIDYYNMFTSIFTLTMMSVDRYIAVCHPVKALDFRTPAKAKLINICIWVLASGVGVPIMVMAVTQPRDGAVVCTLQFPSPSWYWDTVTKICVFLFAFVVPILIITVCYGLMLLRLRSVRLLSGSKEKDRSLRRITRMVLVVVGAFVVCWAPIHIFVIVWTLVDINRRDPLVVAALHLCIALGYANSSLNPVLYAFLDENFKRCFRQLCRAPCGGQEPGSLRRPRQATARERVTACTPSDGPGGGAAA
# mice [4] = test: Hot Plate Assay (Hind Paw Lick Assay); type: in vivo, Male Charles River albino mice; conditions: Mus musculus, sc, subcutaneous, 55 degrees Celsius, dose producing half maximum possible increase in latency (to 25 seconds)
# Text: (§1) The "Tail Flick Assay" and the "Hot Plate Assay" (also known as the "Hind Paw Lick Assay") use thermal pain of transient duration, and are tests in which the pain threshold of the mice or rats being analyzed has not been altered. They are useful for evaluating the ability of a compound or drug to increase the animal's pain threshold (i.e. prolong response latencies), rather than to restore normal thresholds.
# (§2) The heat-induced response to the Tail Flick Assay is a reflex reaction mediated at the level of the spinal cord. The heat-induced response to the Hot Plate Assay, however, is a more complex behavior requiring integration at higher centers in the brain. […]
# (§3) Tail flick response latencies (defined as the time that elapsed between the onset of a high intensity beam of light and the reflex removal of the mouse's tail) and hot plate response latencies (defined as the time that elapsed between the placement of a mouse on a 55 degrees Celsius surface and a lick of the hind paw) were separately, but consecutively, measured before (baseline) and again at fixed intervals after subcutaneous administration of the Test Tyrosyl Diamide Compound, or after the administration of saline (controls). […] The significance of any increase in tail flick response latency or hot plate response latency is determined using analyses of variance. […]
# mice [5] = test: Tail Flick Assay; type: in vivo, Male Charles River albino mice; conditions: Mus musculus, sc, subcutaneous, dose producing half maximum possible increase in latency (to 7.5 seconds)
# Text: as §1, §2, §3
# [6] = system: brain opioid receptor sites; conditions: cited from earlier work
# opioid activity = conditions: cited from earlier work
# [7] = sc, 25 min, subcutaneous, PBQ i.p. 25 min after compound, read-out: ED50, Writhing Assay, Subcutaneous (S.C.)
# [8] = 0.25 h, oral, PBQ i.p. 15 min after compound, read-out: ED50, Writhing Assay, Oral (p.o.)
Compound,activity in Hot Plate Assay (mice [1]),activity in Tail Flick Assay (mice [2]),ED50 (mice [3]; [7]),IC50 (μ opioid receptors),IC50 (δ opioid receptors),Mean IC50 μ/δ Ratio (δ opioid receptors),other results
COc1ccc2c3c1O[C@H]1[C@@H](O)C=C[C@H]4[C@@H](C2)N(C)CC[C@@]341 [codeine],active in both of these tests,active in both of these tests,,,,,
CN1CC[C@]23c4c5ccc(O)c4O[C@H]2[C@@H](O)C=C[C@H]3[C@H]1C5 [morphine],active in both of these tests,active in both of these tests,,,,,
"Cc1cc(O)cc(C)c1C[C@H](N)C(=O)NC(C)(C)CNC(=O)[C@H](Cc1ccccc1)NC(=O)OCc1ccccc1 [Example 10, Phenylmethyl[1S-[[2-[[2S-amino-3-(4-hydroxy-2,6-dimethylohenyl)-1-oxopropyl]amino]-2-methylpropyl]-amino]carbonyl]-2-phenylethyl]carbamate, monohydrochloride]",,,5 mg/kg,3.3 nM,4 nM,0.8,
CC(=O)Oc1ccccc1C(=O)O [aspirin],little activity,little activity,,,,,
"CC(=O)N[C@@H](CCc1ccccc1)C(=O)NCC(C)(C)NC(=O)[C@@H](N)Cc1c(C)cc(O)cc1C [Example 18, αS-(acetylamino)-N-[2-[[2S-amino-3-(4-hydroxy-2,6-dimethylohenyl)-1-oxopropyl]amino]-2-methyloropyl]-benzenebutanamide, hydrochloride]",,,5 mg/kg,0.33 nM,4.7 nM,0.07,
"CNC(=O)N[C@@H](Cc1ccccc1)C(=O)NCC(C)(C)NC(=O)[C@@H](N)Cc1c(C)cc(O)cc1C [Example 37, αS-amino-N-1,1-dimethyl-2-[2S-[[(methylamino)carbonyl]amino]-1-oxo-3-phenylpropyl]amino]ethyl]-4-hydroxy-2,6-dimethylbenzeneoropanamide, monohydrochloride]",,,5 mg/kg,< 10 nM,~2 nM,,
Cc1cc(CC(=O)O)n(C)c1C(=O)c1ccc(Cl)cc1 [Zomax],little activity,little activity,,,,,
"CC(=O)N[C@@H](Cc1ccccc1)C(=O)NCC(C)(C)NC(=O)[C@@H](N)Cc1c(C)cc(O)cc1C [Example 47, αS-(Acetylamino)-N-[2-[[[2S-amino-3-(4-hydroxy-2,6-dimethylphenyl) -1-oxopropyl]amino]-2-methylpropyl]-benzenepropanamide, monohydrochloride]",,,0.2 mg/kg,0.4 nM,0.3 nM,1.3,"ED50 (mice [4]): 2.4 mg/kg; ED50 (mice [5]): 1.9 mg/kg; potency rank in the Writhing Assay (mice [3]): most potent compound of the invention tested; ED50 (mice [3]; [8]): 0.6 mg/kg; potency relative to the Jacobson Compound, Writhing Assay, oral (mice [3]; oral): seven times more potent; potency relative to the Jacobson Compound, Writhing Assay, subcutaneous (mice [3]; subcutaneous): eight times more potent"
"CC(=O)N[C@@H](Cc1ccccc1)C(=O)NCC(C)(C)NC(=O)[C@@H](N)Cc1c(C)cc(OC(C)=O)cc1C [Example 16, αS-(acetylamino)-N-2-[2-[[4-(acetyloxy)-2,6-dimethylphenyl]-2S-amino-1-oxopropyl]amino]-2-methylpropyl]benzenepropanamide, hydrochloride]",,,5 mg/kg,,,0.7,"IC50 (μ opioid receptors; read-out: Mean IC50 Value, μ, rat forebrain membranes, 3[H]-DAMPGO 2.0 nM, 37° C., pH 7.4): 0.51 nM; IC50 (δ opioid receptors; read-out: Mean IC50 Value, δ, rat forebrain membranes, 3[H]-DSLET 1.0 nM, 37° C., pH 7.4): 0.78 nM"
"CC(C)C[C@H](NC(=O)[C@H](Cc1ccccc1)NC(=O)CNC(=O)CNC(=O)[C@@H](N)Cc1ccc(O)cc1)C(=O)O [leucine enkephalin, H2 N-Tyr-Gly-Gly-Phe-Leu-OH]",,,,,,,binding to opiate / brain opioid receptor sites [6]: bind to the same receptor sites as do the opiates; opioid / morphine-like activity (opioid activity): some weak morphine-like actions
"CC(=O)N[C@@H](Cc1ccccc1)C(=O)NCC(C)(C)NC(=O)[C@@H](N)Cc1ccc(O)cc1 [Jacobson Compound, reference compound]",,,1.6 mg/kg,0.6 nM,2 nM,0.3,ED50 (mice [3]; [8]): 4.1 mg/kg
"CC(=O)N[C@@H](Cc1c(C)cccc1C)C(=O)NCCNC(=O)[C@@H](N)Cc1c(C)cc(O)cc1C [Example 52, αS-(Acetylamino)-N-[2-[[2S-amino-3-(4-hydroxy-2,6-dimethylphenyl)-1-oxopropyl]amino]ethyl]-2,6-dimethylbenzeneoropanamide, hydrochloride]",,,5 mg/kg,0.6 nM,32 nM,,
"CSCC[C@H](NC(=O)[C@H](Cc1ccccc1)NC(=O)CNC(=O)CNC(=O)[C@@H](N)Cc1ccc(O)cc1)C(=O)O [methionine enkephalin, H2 N-Tyr-Gly-Gly-Phe-Met-OH]",,,,,,,binding to opiate / brain opioid receptor sites [6]: bind to the same receptor sites as do the opiates; opioid / morphine-like activity (opioid activity): some weak morphine-like actions

# — patent US5272175A, “Substituted tyrosyl diamide compounds” (priority 1992, dated 1993)
